Measurements from ChEMBL document CHEMBL4052759, “Discovery of DS79182026: A potent orally active hepcidin production inhibitor” (Bioorg Med Chem Lett, 2017).

Tests used:
[1] = test system: HepG2; assay: Inhibition of human recombinant BMP6-stimulated hepcidin mRNA expression in human HepG2 cells after 6 hrs by qRT-PCR analysis; format: functional, cell-based; conditions: HepG2, 6 h
[2] = AUC in C57BL/6J mouse at 30 mg/kg, po by LC-MS/MS analysis; format: ADME, organism-based; conditions: in vivo
[3] = Metabolic stability in mouse liver microsomes assessed as […] by measuring parent compound remaining at 1 uM after 0.5 hrs by LC-MS/MS analysis; format: ADME; conditions: read-out: Stability
[4] = Tmax in C57BL/6J mouse at 30 mg/kg, po by LC-MS/MS analysis; format: ADME, organism-based; conditions: in vivo
[5] = Cmax in C57BL/6J mouse at 30 mg/kg, po by LC-MS/MS analysis; format: ADME, organism-based; set-up: dose 30 mg/kg, route oral; conditions: in vivo

Cc1n[nH]c(C)c1-c1ccc2c(NC(=O)C3CC3)n[nH]c2c1
IC50 [1]: 330 nM

COC(=O)Nc1noc2cc(-c3c(-c4cccnn4)n[nH]c3C)ccc12
IC50 [1]: 350 nM

O=C(Nc1n[nH]c2cc(-c3ccc4[nH]cnc4c3)ccc12)C1CC1
IC50 [1]: > 3000 nM

COC(=O)Nc1noc2cc(-c3c(C)n[nH]c3C)ccc12
IC50 [1]: 580 nM

COC(=O)Nc1noc2cc(-c3c(-c4cnccn4)n[nH]c3C)ccc12
IC50 [1]: 210 nM

COC(=O)Nc1noc2cc(-c3c(C4CC4)n[nH]c3C)ccc12
IC50 [1]: 210 nM

COCCOC(=O)Nc1noc2cc(-c3c(-c4ccccn4)n[nH]c3C)ccc12
IC50 [1]: 69 nM

COC(=O)Nc1noc2cc(-c3c(-c4ccncn4)n[nH]c3C)ccc12
IC50 [1]: 2900 nM

CCNC(=O)Nc1noc2cc(-c3c(C4CC4)n[nH]c3C)ccc12
IC50 [1]: 720 nM

Cc1[nH]nc(C2CC2)c1-c1ccc2c(NC(=O)C3CC3)n[nH]c2c1
IC50 [1]: 82 nM

CNC(=O)c1n[nH]c(C)c1-c1ccc2c(NC(=O)OC)noc2c1
IC50 [1]: 4400 nM

Cc1[nH]nc(-c2ccccn2)c1-c1ccc2c(NC(=O)OC(C)C)noc2c1
IC50 [1]: 160 nM

COC(=O)Nc1noc2cc(-c3c(-c4cccc(C)n4)n[nH]c3C)ccc12
IC50 [1]: 42 nM

COC(=O)Nc1noc2cc(-c3c(-c4cc(C)ccn4)n[nH]c3C)ccc12
IC50 [1]: 2600 nM

Cc1[nH]nc(-c2ccccn2)c1-c1ccc2c(NC(=O)OCCF)noc2c1
IC50 [1]: 47 nM

COCc1n[nH]c(C)c1-c1ccc2c(NC(=O)OC)noc2c1
IC50 [1]: 1100 nM

Cc1n[nH]c(C)c1-c1ccc2c(NC(=O)c3ccc(OCCN4CCCCC4)cc3)n[nH]c2c1
IC50 [1]: 260 nM

COC(=O)Nc1noc2cc(-c3c(C(C)O)n[nH]c3C)ccc12 (centres undefined)
IC50 [1]: 1200 nM

O=C(Nc1n[nH]c2cc(-c3ccncc3)ccc12)C1CC1
IC50 [1]: 7200 nM

COC(=O)Nc1noc2cc(-c3c(-c4ccccc4)n[nH]c3C)ccc12
IC50 [1]: 540 nM

COC(=O)Nc1noc2cc(-c3c(-c4cccc(OC)n4)n[nH]c3C)ccc12
IC50 [1]: 400 nM

O=C1Cc2cc(-c3ccc4c(NC(=O)C5CC5)n[nH]c4c3)ccc2N1
IC50 [1]: > 30000 nM

COC(=O)Nc1noc2cc(-c3c(-c4ncccc4C)n[nH]c3C)ccc12
IC50 [1]: 4800 nM

COC(=O)Nc1noc2cc(-c3c(C(=O)OC)n[nH]c3C)ccc12
IC50 [1]: 2900 nM

Cc1noc(C)c1-c1ccc2c(NC(=O)C3CC3)n[nH]c2c1
IC50 [1]: 1000 nM

O=C(Nc1n[nH]c2cc(-c3cc[nH]c3)ccc12)C1CC1
IC50 [1]: > 30000 nM

COC(=O)Nc1noc2cc(-c3c(C(C)C)n[nH]c3C)ccc12
IC50 [1]: 910 nM

COC(=O)Nc1noc2cc(-c3c(-c4cccc(C(C)C)n4)n[nH]c3C)ccc12
IC50 [1]: 2600 nM

O=C(Nc1n[nH]c2cc(-c3ccc(O)cc3)ccc12)c1ccc(OCCN2CCOCC2)cc1
AUC [2]: 890 ng·h/mL
remaining at 0.5 h, 1 µM [3]: 76%
Tmax [4]: 1.5 h
IC50 [1]: 130 nM
Cmax [5]: 320 ng/mL

CCc1n[nH]c(C)c1-c1ccc2c(NC(=O)OC)noc2c1
IC50 [1]: 460 nM

O=C(Nc1n[nH]c2cc(-c3cnc4[nH]ccc4c3)ccc12)C1CC1
IC50 [1]: 11000 nM

CCOC(=O)Nc1noc2cc(-c3c(-c4ccccn4)n[nH]c3C)ccc12
IC50 [1]: 40 nM

COC(=O)Nc1noc2cc(-c3c(C(C)(C)C)n[nH]c3C)ccc12
IC50 [1]: > 10000 nM

O=C(Nc1n[nH]c2cc(-c3ccc(O)cc3)ccc12)C1CC1
IC50 [1]: 400 nM

Cc1[nH]nc(C2CC2)c1-c1ccc2c(N)noc2c1
IC50 [1]: 1400 nM
